2 molecules from patent US20080051429A1, “USE OF 4-AMINO-PIPERIDINES FOR TREATING SLEEP DISORDERS” (priority 2006, published 2008) can be followed below.

One data set has as its target T1, m2 (Homo sapiens, UniProt P08172).
T1 construct: expressed in transfected cells; host or cells: NIH3T3
T1 sequence (P08172 1-466): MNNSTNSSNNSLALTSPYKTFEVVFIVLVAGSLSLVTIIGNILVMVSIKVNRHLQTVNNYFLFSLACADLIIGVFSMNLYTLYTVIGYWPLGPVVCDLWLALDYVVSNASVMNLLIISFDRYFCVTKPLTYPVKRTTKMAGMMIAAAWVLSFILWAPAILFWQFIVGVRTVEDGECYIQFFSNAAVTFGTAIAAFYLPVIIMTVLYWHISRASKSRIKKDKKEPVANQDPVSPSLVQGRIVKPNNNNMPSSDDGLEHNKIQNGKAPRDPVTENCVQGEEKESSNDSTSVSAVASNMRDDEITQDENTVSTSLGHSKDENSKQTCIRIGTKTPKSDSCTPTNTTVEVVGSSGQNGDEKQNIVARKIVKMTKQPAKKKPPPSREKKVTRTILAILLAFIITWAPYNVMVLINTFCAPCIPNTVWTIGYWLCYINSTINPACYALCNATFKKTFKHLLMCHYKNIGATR
Description: R-SAT broad profiling. To be noted: read-out: pEC50/pIC50 (converted). The data set is classed as cell-based. The procedure:
(§1) The functional receptor assay, Receptor Selection and Amplification Technology (R-SAT), was used (with minor modifications from that previously described U.S. Pat. No. 5,707,798) to screen compounds for efficacy at the 5-HT2A receptor. Briefly, NIH3T3 cells were grown in 96 well tissue culture plates to 70-80% confluence. Cells were transfected for 12-16 hours with plasmid DNAs using superfect (Qiagen Inc.) as per manufacture's protocols. R-SAT's were generally performed with 50 ng/well of receptor and 20 ng/well of Beta-galactosidase plasmid DNA. All receptor and G-protein constructs used were in the pSI mammalian expression vector (Promega Inc) as described in U.S. Pat. No. 5,707,798. The 5HT2A receptor gene was amplified by nested PCR from brain cDNA using the oligodeoxynucleotides based on the published sequence (see Saltzman et. al. Biochem. Biophys. Res. Comm. 181:1469-78 (1991)). Large-scale transfections, cells were transfected for 12-16 hours, then trypsinized and frozen in DMSO. Frozen cells were later thawed, plated at 10,000-40,000 cells per well of a 96 well plate that contained drug. With both methods, cells were then grown in a humidified atmosphere with 5% ambient CO2 for five days. Media was then removed from the plates and marker gene activity was measured by the addition of the beta-galactosidase substrate ONPG (in PBS with 5% NP-40). The resulting colorimetric reaction was measured in a spectrophotometric plate reader (Titertek Inc.)at […]. All data were analyzed using the computer program XLFit (IDBSm). Efficacy is the percent maximal repression compared to repression by a control compound (ritanserin in the case of 5HT2A). pIC50 is the negative of the log(IC50), where IC50 is the calculated concentration in Molar that produces 50% maximal repression.
(§2) The R-SAT assay (described above in example 136) was used to investigate the selectivity of 2-(4-Methoxyphenyl)-N-(4-methylbenzyl)-N-(1-methylpiperidin-4-yl)acetamide hydrochloride.

In the next data set the target is T2, m4 (Homo sapiens, UniProt P08173).
T2 construct: expressed in transfected cells; host or cells: NIH3T3
T2 sequence (P08173 1-479): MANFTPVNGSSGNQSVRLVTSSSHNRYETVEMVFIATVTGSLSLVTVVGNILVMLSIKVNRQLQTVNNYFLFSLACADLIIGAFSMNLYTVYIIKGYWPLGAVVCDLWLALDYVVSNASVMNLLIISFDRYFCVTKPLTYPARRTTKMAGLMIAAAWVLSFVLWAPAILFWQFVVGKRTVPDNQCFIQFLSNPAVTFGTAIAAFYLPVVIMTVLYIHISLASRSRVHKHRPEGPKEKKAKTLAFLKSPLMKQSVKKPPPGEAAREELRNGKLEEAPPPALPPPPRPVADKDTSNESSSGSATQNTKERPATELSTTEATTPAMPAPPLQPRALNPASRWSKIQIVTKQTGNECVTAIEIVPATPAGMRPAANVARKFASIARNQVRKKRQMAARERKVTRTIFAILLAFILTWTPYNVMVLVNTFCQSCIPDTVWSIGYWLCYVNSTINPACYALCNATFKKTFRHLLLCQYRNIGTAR
Kind of data set: R-SAT broad profiling. To be noted: read-out: pEC50/pIC50 (converted). The data set is classed as cell-based. The procedure:
as §1, §2

The target of another data set is T3, m5 (Homo sapiens, UniProt P08912).
T3 construct: expressed in transfected cells; host or cells: NIH3T3
T3 sequence (P08912 1-532): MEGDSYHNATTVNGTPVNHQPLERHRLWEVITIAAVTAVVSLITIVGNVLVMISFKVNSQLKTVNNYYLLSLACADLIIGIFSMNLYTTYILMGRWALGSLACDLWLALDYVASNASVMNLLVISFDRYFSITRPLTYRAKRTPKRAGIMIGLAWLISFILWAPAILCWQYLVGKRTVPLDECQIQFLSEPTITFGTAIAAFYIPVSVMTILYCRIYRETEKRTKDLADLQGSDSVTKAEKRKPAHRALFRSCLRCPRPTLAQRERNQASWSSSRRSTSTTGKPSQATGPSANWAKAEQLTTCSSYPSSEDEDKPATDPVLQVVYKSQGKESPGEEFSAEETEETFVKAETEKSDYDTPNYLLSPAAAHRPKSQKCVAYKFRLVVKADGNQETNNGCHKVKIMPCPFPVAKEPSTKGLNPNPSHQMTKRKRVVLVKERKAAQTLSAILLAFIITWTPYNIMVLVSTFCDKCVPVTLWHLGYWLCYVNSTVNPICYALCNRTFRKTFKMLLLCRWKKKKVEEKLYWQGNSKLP
Description: R-SAT broad profiling. The data set is classed as cell-based. To be noted: read-out: pEC50/pIC50 (converted). The method, then:
as §1, §2

A further data set relates to healthy volunteers. Description: Clinical safety evaluation. The data set is classed as in vivo, human. The method, then:
Safety: 3-positional vital signs, ECGs, body temperature, and respiratory rates as well as blood chemistries, hematology, and urinalysis served as safety measures. Safety measures were assessed at screening, baseline (Day −1), Day 1, Day 2, Day 13, and Day 14. Any observed or reported adverse events were recorded. Blood samples were taken on Day −1 (baseline) and on Day 14 (steady state). Two weeks after the termination of treatment administration (Day 28), an end-of-study visit was conducted, and included a clinical safety evaluation.

Turning to `COc1ccc(CC(=O)N(Cc2ccc(C)cc2)C2CCN(C)CC2)cc1` [Example 50ELH27, 2-(4-Methoxyphenyl)-N-(4-methylbenzyl)-N-(1-methylpiperidin-4-yl)acetamide], the EC50 on m2 (agonist), on m4 (agonist) and at m5 (agonist) was greater than 3.16 µM throughout. For the same molecule, the IC50 on m2 (antagonist), at m4 (antagonist) and at m5 (antagonist) was greater than 3.16 µM each time.

As for `CC(C)COc1ccc(CNC(=O)N(Cc2ccc(F)cc2)C2CCN(C)CC2)cc1` [N-(1-methylpiperidin-4-yl)-N-(4-fluorophenylmethyl)-N′-(4-(2-methylpropyloxy)phenylmethyl)carbamide], in the data set on healthy volunteers (1 to 20 mg once daily, 14 days), the safety and tolerability entry was “safe and well tolerated”; the serious adverse events entry was “no serious adverse events”. Moreover, the “nature of adverse events” value in the data set with healthy volunteers (comparable across placebo and treated groups) was “mild to moderate”.
